Data: the kinase profiling compilation of Christmann-Franck et al. (2016)

Assays:
Assay in all cases: KINOMEscan competition binding
Conditions in all cases: compound 10.0 µM
[1] = target: PAK4 (human) (UniProt O96013)
[2] = target: MAP3K6 (human) (UniProt O95382)
[3] = target: CSNK1G2 (human) (UniProt P78368)
[4] = target: HIPK2 (human) (UniProt Q9H2X6)
[5] = target: TSSK1B (human) (UniProt Q9BXA7)
[6] = target: PAK3 (human) (UniProt O75914)
[7] = target: TNK2 (human) (UniProt Q07912)
[8] = target: MST1R (human) (UniProt Q04912)
[9] = target: NEK1 (human) (UniProt Q96PY6)
[10] = target: STK17A (human) (UniProt Q9UEE5)
[11] = target: IKBKB (human) (UniProt O14920)
Chain of IKBKB (human) (O14920 whole entry, looked up): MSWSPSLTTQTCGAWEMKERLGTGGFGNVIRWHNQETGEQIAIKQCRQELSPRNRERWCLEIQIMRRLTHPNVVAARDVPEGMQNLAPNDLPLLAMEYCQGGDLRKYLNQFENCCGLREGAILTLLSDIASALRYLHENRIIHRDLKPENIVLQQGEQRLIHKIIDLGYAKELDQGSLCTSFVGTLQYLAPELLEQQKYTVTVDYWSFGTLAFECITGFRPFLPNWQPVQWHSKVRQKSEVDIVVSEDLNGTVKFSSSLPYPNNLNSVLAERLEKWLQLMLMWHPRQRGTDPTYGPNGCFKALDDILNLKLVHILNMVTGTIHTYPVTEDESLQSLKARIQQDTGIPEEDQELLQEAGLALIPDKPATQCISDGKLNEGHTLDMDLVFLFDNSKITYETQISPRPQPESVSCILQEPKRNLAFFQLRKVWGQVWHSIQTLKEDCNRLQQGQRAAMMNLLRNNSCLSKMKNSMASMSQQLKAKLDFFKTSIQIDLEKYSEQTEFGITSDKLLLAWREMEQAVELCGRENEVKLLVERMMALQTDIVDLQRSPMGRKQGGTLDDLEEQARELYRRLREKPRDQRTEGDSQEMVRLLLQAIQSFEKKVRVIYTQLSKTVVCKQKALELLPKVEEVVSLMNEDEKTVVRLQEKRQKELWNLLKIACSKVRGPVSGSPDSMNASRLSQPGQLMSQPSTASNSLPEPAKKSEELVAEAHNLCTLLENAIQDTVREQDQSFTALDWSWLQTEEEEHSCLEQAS

[12] = target: PRKG2 (human) (UniProt Q13237)
Chain of PRKG2 (human) (Q13237 whole entry, looked up): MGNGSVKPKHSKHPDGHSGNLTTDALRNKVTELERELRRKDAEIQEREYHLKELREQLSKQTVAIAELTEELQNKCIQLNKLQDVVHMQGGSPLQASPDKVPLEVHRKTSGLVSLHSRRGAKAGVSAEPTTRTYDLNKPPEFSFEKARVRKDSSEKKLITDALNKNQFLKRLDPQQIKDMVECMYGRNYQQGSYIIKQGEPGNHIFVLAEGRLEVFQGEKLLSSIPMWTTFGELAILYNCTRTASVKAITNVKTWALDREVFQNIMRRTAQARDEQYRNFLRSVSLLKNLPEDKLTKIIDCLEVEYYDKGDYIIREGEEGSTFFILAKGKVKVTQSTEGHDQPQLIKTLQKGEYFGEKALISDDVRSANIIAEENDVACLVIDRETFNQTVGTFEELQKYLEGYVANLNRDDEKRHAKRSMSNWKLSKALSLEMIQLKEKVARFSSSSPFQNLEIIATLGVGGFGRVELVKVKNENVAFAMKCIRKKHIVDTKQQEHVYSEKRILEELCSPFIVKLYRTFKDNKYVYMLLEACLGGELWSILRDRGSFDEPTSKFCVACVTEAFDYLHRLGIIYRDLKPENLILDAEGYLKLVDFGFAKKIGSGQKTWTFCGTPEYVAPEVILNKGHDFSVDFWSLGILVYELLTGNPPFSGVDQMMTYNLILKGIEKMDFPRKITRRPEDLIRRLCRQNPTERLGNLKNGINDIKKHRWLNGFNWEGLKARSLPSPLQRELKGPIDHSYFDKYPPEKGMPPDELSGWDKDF

[13] = target: MARK4 (human) (UniProt Q96L34)
[14] = target: YSK4 (human) (UniProt Q56UN5)
[15] = target: EPHA6 (human) (UniProt Q9UF33)
[16] = target: TYK2 JH1 catalytic (human) (UniProt P29597)
[17] = target: CLK2 (human) (UniProt P49760)
[18] = target: RIOK1 (human) (UniProt Q9BRS2)
Chain of RIOK1 (human) (Q9BRS2 whole entry, looked up): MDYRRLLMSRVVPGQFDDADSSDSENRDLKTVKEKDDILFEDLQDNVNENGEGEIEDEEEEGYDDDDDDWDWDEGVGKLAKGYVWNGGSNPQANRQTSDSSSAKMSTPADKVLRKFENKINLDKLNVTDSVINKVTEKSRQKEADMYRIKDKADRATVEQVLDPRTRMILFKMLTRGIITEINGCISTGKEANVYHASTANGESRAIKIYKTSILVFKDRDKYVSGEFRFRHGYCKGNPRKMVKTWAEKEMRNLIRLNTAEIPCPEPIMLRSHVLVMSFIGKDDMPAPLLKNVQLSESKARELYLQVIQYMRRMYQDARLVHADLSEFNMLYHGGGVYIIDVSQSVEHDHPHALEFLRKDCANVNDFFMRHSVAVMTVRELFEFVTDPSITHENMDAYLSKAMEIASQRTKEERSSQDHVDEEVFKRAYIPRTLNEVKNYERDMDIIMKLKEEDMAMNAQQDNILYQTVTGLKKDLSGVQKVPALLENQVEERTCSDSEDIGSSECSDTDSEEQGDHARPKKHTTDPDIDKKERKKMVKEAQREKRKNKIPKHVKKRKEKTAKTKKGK

[19] = target: MAP4K1 (human) (UniProt Q92918)
[20] = target: STK10 (human) (UniProt O94804)
[21] = target: PRPF4B (human) (UniProt Q13523)
[22] = target: JAK2 JH1 catalytic (human) (UniProt O60674)
[23] = target: CDKL2 (human) (UniProt Q92772)
[24] = target: CLK3 (human) (UniProt P49761)
Chain of CLK3 (human) (P49761 whole entry, looked up): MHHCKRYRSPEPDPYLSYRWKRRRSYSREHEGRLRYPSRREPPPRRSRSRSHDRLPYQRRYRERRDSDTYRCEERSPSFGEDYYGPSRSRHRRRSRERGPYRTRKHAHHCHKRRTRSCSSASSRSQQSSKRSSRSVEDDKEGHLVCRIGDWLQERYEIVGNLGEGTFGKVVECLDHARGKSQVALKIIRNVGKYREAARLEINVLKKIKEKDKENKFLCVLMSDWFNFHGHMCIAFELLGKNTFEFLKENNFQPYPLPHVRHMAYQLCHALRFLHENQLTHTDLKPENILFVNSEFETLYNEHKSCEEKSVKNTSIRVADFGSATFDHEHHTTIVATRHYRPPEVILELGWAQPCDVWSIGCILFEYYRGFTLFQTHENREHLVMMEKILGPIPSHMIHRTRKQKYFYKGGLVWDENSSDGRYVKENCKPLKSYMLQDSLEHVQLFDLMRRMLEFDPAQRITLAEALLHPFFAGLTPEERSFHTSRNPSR

[25] = test system: FLT3 (human), P36888 [K663Q]
[26] = target: CDK11B (human) (UniProt P21127)
[27] = target: PRKCD (human) (UniProt Q05655)
[28] = target: PRKCI (human) (UniProt P41743)
[29] = target: STK4 (human) (UniProt Q13043)
[30] = target: EPHB3 (human) (UniProt P54753)
[31] = target: CDKL1 (human) (UniProt Q00532)
[32] = target: DSTYK (human) (UniProt Q6XUX3)
[33] = target: RPS6KA4 KD1 (human) (UniProt O75676)
[34] = target: YES1 (human) (UniProt P07947)
[35] = target: NTRK2 (human) (UniProt Q16620)
Chain of NTRK2 (human) (Q16620 whole entry, looked up): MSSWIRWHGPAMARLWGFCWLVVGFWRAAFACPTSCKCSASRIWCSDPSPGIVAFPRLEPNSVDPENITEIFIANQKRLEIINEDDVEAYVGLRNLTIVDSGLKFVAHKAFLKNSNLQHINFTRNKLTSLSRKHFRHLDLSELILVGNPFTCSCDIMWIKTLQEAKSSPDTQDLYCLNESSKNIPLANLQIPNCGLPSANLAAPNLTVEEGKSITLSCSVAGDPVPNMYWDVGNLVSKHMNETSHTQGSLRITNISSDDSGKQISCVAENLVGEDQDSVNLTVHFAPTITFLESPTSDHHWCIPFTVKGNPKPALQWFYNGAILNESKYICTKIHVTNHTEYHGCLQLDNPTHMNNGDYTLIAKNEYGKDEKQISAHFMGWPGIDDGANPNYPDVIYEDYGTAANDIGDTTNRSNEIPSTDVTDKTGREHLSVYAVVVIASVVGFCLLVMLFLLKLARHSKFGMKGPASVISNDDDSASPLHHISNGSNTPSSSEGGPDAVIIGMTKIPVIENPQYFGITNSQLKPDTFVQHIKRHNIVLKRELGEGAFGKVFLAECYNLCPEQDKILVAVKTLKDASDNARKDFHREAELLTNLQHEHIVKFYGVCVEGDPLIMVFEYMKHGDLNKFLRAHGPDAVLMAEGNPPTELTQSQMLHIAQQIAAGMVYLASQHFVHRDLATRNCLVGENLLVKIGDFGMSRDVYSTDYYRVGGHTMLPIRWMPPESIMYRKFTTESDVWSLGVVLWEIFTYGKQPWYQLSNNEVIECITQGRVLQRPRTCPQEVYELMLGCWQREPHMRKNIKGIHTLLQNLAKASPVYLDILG

[36] = target: PDGFRA (human) (UniProt P16234)
[37] = test system: PIK3CA (human), P42336 [C420R]
[38] = target: MYLK3 (human) (UniProt Q32MK0)
[39] = target: CSNK1A1 (human) (UniProt P48729)
[40] = target: FER (human) (UniProt P16591)
[41] = target: CHEK1 (human) (UniProt O14757)
Chain of CHEK1 (human) (O14757 whole entry, looked up): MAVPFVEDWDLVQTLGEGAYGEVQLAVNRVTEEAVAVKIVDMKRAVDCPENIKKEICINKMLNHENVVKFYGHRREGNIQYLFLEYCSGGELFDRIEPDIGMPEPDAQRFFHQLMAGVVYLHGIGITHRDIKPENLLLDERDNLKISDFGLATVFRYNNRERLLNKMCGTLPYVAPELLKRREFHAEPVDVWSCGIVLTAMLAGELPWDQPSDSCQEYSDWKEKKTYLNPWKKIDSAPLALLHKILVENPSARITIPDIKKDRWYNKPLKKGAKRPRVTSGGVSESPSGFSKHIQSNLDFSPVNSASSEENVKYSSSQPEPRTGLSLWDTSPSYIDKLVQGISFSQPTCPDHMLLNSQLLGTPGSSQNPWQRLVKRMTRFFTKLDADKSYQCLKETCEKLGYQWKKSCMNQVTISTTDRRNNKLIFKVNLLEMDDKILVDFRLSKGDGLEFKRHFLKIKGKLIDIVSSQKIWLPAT

Chain of TNK2 (human) (Q07912 whole entry, looked up): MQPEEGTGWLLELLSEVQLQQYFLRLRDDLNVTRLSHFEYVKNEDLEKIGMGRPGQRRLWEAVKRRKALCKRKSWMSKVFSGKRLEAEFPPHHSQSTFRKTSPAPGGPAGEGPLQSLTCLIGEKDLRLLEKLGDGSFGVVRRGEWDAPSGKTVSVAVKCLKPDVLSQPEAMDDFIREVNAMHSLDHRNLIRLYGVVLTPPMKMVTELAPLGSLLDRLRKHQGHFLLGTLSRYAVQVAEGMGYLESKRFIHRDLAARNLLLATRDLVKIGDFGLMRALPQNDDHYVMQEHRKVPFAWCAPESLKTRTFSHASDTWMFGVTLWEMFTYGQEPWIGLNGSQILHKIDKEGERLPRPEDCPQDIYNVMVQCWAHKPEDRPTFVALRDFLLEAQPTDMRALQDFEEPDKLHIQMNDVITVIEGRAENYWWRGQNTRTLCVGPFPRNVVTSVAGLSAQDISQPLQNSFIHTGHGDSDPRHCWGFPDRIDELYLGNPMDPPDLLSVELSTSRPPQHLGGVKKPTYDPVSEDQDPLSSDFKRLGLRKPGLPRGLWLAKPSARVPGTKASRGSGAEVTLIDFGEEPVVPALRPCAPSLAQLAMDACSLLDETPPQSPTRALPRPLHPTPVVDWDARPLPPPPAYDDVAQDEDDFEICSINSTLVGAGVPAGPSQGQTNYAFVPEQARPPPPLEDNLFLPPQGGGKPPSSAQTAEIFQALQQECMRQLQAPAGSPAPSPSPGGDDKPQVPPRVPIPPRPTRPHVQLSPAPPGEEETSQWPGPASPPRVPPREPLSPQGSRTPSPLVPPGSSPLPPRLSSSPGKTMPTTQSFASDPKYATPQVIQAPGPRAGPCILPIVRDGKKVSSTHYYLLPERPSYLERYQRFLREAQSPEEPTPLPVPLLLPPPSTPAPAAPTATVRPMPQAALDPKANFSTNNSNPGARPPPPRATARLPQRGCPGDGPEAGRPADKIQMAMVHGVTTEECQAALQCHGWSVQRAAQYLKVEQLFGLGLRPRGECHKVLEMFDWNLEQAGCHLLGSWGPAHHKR

CCC(=O)N1CCN(c2ccc(-n3c(=O)ccc4cnc5ccc(-c6cnc7ccccc7c6)cc5c43)cc2C(F)(F)F)CC1
kinase still bound, per cent of control [1]: 100%
kinase still bound, per cent of control [2]: 100%
kinase still bound, per cent of control [3]: 100%
kinase still bound, per cent of control [4]: 58%
kinase still bound, per cent of control [5]: 100%
kinase still bound, per cent of control [6]: 100%
kinase still bound, per cent of control [7]: 51%
kinase still bound, per cent of control [8]: 55%
kinase still bound, per cent of control [9]: 89%
kinase still bound, per cent of control [10]: 93%
kinase still bound, per cent of control [11]: 61%
kinase still bound, per cent of control [12]: 78%
kinase still bound, per cent of control [13]: 100%
kinase still bound, per cent of control [14]: 38%
kinase still bound, per cent of control [15]: 75%
kinase still bound, per cent of control [16]: 70%
kinase still bound, per cent of control [17]: 65%
kinase still bound, per cent of control [18]: 81%
kinase still bound, per cent of control [19]: 30%
kinase still bound, per cent of control [20]: 79%
kinase still bound, per cent of control [21]: 100%
kinase still bound, per cent of control [22]: 65%
per cent of control [23]: 58%
kinase still bound, per cent of control [24]: 43%
kinase still bound, per cent of control [25]: 23%
per cent of control [26]: 97%
kinase still bound, per cent of control [27]: 82%
kinase still bound, per cent of control [28]: 85%
kinase still bound, per cent of control [29]: 7.6%
kinase still bound, per cent of control [30]: 85%
per cent of control [31]: 100%
kinase still bound, per cent of control [32]: 28%
kinase still bound, per cent of control [33]: 100%
kinase still bound, per cent of control [34]: 74%
kinase still bound, per cent of control [35]: 81%
kinase still bound, per cent of control [36]: 63%
kinase still bound, per cent of control [37]: 0.7%
kinase still bound, per cent of control [38]: 94%

CC(C)n1nc(-c2cc3cc(O)ccc3[nH]2)c2c(N)ncnc21
kinase still bound, per cent of control [1]: 13%
kinase still bound, per cent of control [2]: 85%
kinase still bound, per cent of control [4]: 0.9%
kinase still bound, per cent of control [5]: 83%
kinase still bound, per cent of control [6]: 59%
kinase still bound, per cent of control [7]: 48%
kinase still bound, per cent of control [8]: 89%
kinase still bound, per cent of control [9]: 61%
kinase still bound, per cent of control [10]: 81%
kinase still bound, per cent of control [11]: 84%
kinase still bound, per cent of control [13]: 82%
kinase still bound, per cent of control [14]: 0%
kinase still bound, per cent of control [15]: 5.2%
kinase still bound, per cent of control [16]: 8.2%
kinase still bound, per cent of control [17]: 9.7%
kinase still bound, per cent of control [18]: 100%
kinase still bound, per cent of control [19]: 33%
kinase still bound, per cent of control [20]: 0.5%
kinase still bound, per cent of control [21]: 90%
kinase still bound, per cent of control [22]: 0.95%
per cent of control [23]: 75%
kinase still bound, per cent of control [24]: 66%
kinase still bound, per cent of control [39]: 3.6%
kinase still bound, per cent of control [25]: 27%
per cent of control [26]: 100%
kinase still bound, per cent of control [27]: 39%
kinase still bound, per cent of control [28]: 52%
kinase still bound, per cent of control [29]: 84%
kinase still bound, per cent of control [30]: 81%
kinase still bound, per cent of control [40]: 64%
kinase still bound, per cent of control [41]: 66%
per cent of control [31]: 100%
kinase still bound, per cent of control [32]: 5.8%
kinase still bound, per cent of control [33]: 100%
kinase still bound, per cent of control [34]: 3.2%
kinase still bound, per cent of control [36]: 2.2%

COC(=O)Nc1ccc(-c2nc(N3CCOCC3)c3cnn(C4CCN(C(=O)OC)CC4)c3n2)cc1
kinase still bound, per cent of control [1]: 100%
kinase still bound, per cent of control [2]: 95%
kinase still bound, per cent of control [3]: 98%
kinase still bound, per cent of control [4]: 65%
kinase still bound, per cent of control [5]: 100%
kinase still bound, per cent of control [6]: 83%
kinase still bound, per cent of control [7]: 100%
kinase still bound, per cent of control [8]: 82%
kinase still bound, per cent of control [9]: 77%
kinase still bound, per cent of control [10]: 91%
kinase still bound, per cent of control [11]: 74%
kinase still bound, per cent of control [12]: 86%
kinase still bound, per cent of control [13]: 96%
kinase still bound, per cent of control [14]: 75%
kinase still bound, per cent of control [15]: 90%
kinase still bound, per cent of control [16]: 100%
kinase still bound, per cent of control [17]: 57%
kinase still bound, per cent of control [18]: 92%
kinase still bound, per cent of control [19]: 100%
kinase still bound, per cent of control [20]: 100%
kinase still bound, per cent of control [21]: 100%
kinase still bound, per cent of control [22]: 73%
per cent of control [23]: 94%
kinase still bound, per cent of control [24]: 100%
kinase still bound, per cent of control [39]: 100%
kinase still bound, per cent of control [25]: 93%
per cent of control [26]: 100%
kinase still bound, per cent of control [27]: 99%
kinase still bound, per cent of control [28]: 100%
kinase still bound, per cent of control [29]: 100%
kinase still bound, per cent of control [30]: 74%
kinase still bound, per cent of control [40]: 100%
kinase still bound, per cent of control [41]: 96%
per cent of control [31]: 91%
kinase still bound, per cent of control [32]: 100%
kinase still bound, per cent of control [33]: 94%
kinase still bound, per cent of control [34]: 97%
kinase still bound, per cent of control [35]: 100%
kinase still bound, per cent of control [36]: 92%
kinase still bound, per cent of control [37]: 3%
kinase still bound, per cent of control [38]: 100%

COc1ccc(-c2ccc3c(N4CCOCC4)nc(N4C[C@@H](C)O[C@@H](C)C4)nc3n2)cc1CO
kinase still bound, per cent of control [1]: 86%
kinase still bound, per cent of control [2]: 91%
kinase still bound, per cent of control [3]: 100%
kinase still bound, per cent of control [4]: 58%
kinase still bound, per cent of control [5]: 91%
kinase still bound, per cent of control [6]: 100%
kinase still bound, per cent of control [7]: 100%
kinase still bound, per cent of control [8]: 99%
kinase still bound, per cent of control [9]: 100%
kinase still bound, per cent of control [10]: 96%
kinase still bound, per cent of control [11]: 100%
kinase still bound, per cent of control [12]: 100%
kinase still bound, per cent of control [13]: 84%
kinase still bound, per cent of control [14]: 100%
kinase still bound, per cent of control [15]: 100%
kinase still bound, per cent of control [16]: 100%
kinase still bound, per cent of control [17]: 64%
kinase still bound, per cent of control [18]: 51%
kinase still bound, per cent of control [19]: 88%
kinase still bound, per cent of control [20]: 92%
kinase still bound, per cent of control [21]: 100%
kinase still bound, per cent of control [22]: 71%
per cent of control [23]: 95%
kinase still bound, per cent of control [24]: 90%
kinase still bound, per cent of control [39]: 100%
kinase still bound, per cent of control [25]: 96%
per cent of control [26]: 100%
kinase still bound, per cent of control [27]: 100%
kinase still bound, per cent of control [28]: 79%
kinase still bound, per cent of control [29]: 100%
kinase still bound, per cent of control [30]: 98%
kinase still bound, per cent of control [40]: 100%
kinase still bound, per cent of control [41]: 99%
per cent of control [31]: 100%
kinase still bound, per cent of control [32]: 78%
kinase still bound, per cent of control [33]: 96%
kinase still bound, per cent of control [34]: 100%
kinase still bound, per cent of control [35]: 73%
kinase still bound, per cent of control [36]: 94%
kinase still bound, per cent of control [37]: 2.3%
kinase still bound, per cent of control [38]: 100%
